Experimental data taken from publication PMC12516686, “Design of 2‑Aminobenzothiazole Derivatives Targeting Trypanosomatid PTR1 by a Multidisciplinary Fragment Hybridization Approach” (Journal of Medicinal Chemistry, 2025).
Values joined by “and” are separate entries in the source; they are usually repeats but may differ in a detail not shown here. Equal entries are not always repeated. Where two headings read alike, the source gives them in different places.

Assays:
CYP2C9 = biological target: T1, CYP2C9 (Homo sapiens, UniProt P11712); experiment: Cytochrome P450 assay (P450-Glo), isoform 2C9; format: in vitro ADME
T1 construct: purchased Promega; host or cells: baculovirus-infected insect cells
T1 sequence (P11712 whole entry, canonical isoform): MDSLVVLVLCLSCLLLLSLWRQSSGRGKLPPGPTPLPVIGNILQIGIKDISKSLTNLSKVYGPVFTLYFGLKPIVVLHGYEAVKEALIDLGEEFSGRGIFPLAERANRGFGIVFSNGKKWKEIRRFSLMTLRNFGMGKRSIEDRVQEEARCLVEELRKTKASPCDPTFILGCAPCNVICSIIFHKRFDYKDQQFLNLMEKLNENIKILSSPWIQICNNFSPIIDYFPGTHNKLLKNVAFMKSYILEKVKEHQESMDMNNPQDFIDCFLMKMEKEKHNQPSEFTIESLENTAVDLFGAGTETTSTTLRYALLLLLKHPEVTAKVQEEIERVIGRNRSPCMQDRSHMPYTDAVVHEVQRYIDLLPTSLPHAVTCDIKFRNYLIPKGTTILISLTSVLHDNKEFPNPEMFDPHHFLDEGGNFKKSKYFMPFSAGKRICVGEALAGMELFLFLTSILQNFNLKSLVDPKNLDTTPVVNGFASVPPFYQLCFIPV
Text: (§1) 3A4. The Promega P450-Glo assay platform was used with microsomal preparations of
(§2) cytochrome P450s from baculovirus-infected insect cells. […]

CYP1A2 = biological target: T2, CYP1A2 (Homo sapiens, UniProt P05177); experiment: Cytochrome P450 assay (P450-Glo), isoform 1A2; format: in vitro ADME
T2 construct: purchased Promega; host or cells: baculovirus-infected insect cells
T2 sequence (P05177 1-516): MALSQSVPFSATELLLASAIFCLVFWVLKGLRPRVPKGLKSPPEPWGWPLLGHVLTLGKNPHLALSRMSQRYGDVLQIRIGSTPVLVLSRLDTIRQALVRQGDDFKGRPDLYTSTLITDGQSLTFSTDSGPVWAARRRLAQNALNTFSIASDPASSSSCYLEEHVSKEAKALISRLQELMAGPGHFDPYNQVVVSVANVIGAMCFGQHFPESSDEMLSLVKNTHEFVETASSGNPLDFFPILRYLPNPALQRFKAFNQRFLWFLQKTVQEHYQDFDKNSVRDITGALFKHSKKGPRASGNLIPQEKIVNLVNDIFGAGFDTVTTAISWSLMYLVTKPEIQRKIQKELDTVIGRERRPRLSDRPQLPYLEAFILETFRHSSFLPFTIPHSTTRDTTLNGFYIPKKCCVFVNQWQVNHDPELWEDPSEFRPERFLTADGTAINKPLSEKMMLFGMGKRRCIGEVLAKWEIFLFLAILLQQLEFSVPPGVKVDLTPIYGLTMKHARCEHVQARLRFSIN
Text: as §1, §2

TbPTR1 = biological target: T3, TbPTR1 (Trypanosoma brucei brucei, UniProt O76290); experiment: TbPTR1 indirect (cytochrome c-coupled) enzyme assay; format: biochemical; details: for IC50: indirect assay, triplicate, SD within ± 10% of the value
T3 sequence (O76290 1-268): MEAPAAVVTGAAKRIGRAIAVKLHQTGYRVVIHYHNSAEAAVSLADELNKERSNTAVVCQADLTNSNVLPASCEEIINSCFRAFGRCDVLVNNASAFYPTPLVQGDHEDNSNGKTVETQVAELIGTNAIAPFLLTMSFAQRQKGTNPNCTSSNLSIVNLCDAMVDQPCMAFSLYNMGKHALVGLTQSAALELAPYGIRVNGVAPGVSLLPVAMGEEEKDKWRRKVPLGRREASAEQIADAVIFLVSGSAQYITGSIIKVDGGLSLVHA
Description: (§3) The in vitro assays used in the current study were based on those reported in the literature. As PTR1 enzymes use dihydrobiopterin (H2B) as a substrate and also require NADPH for the reaction, the reduction of H2B to tetrahydrobiopterin by PTR1 is nonenzymatically linked with the reduction of cytochrome c in this assay, which is detected at 550 nm. The formation of cyt c Fe^2+ results in an increase in the photometric readout. TbPTR1 and LmPTR1 activity was assayed in a buffer containing 20 mM sodium citrate (pH 6.0). The final reaction mixture contained the test compound at a range of concentrations and TbPTR1/LmPTR1 (6.0 nM/12 nM), H2B (0.3 μM/3 μM), cytochrome c (100 μM/100 μM), and NADPH (500 μM/500 μM). The final assay volume was 50 μL in 384-well clear plates (Greiner Bio-One, 781101). Compound screening was performed by the addition of the compound to the assay plates (in 100% DMSO), followed by the addition of 45 μL Reaction Mix (enzyme, H2B cytochrome c in 20 mM sodium citrate buffer). A pre-read was made at 550 nm using an EnVision Multilabel Reader 2103 (PerkinElmer Inc., US), followed by incubation of the assay plates at 30 °C for 10 min. The reaction was initiated by the addition of 5 μL of NADPH (5 mM in ultrapure water) followed by kinetically reading the assay plates at 550 nm using the EnVision Multilabel Reader at 10, 20, 30, 40, and 50 min. The slope of each assay well was calculated. The screening data were analyzed using ActivityBase (IDBS), and for outlier elimination in the control wells, the 3-σ method was applied. Based on the slope, the data were normalized to the positive control methotrexate for TbPTR1/LmPTR1 (1 μM/50 μM, yielding 100% inhibition) and negative controls (1% DMSO, yielding 0% inhibition), and % inhibition was calculated for all samples. The measurement at time 0 min was used to flag optically interfering samples. Each compound was tested in triplicate, and the pIC50 value, standard deviation, Hill slope, and minimum and maximum signals for each dose–response curve were obtained using a 4-parameter logistic fit in the XE module of Activity Base (IDBS), as also reported previously. ,

A549 cells = experiment: Cytotoxicity against A549 cells (CellTiter-Glo); format: cell-based
Description: (§4) Cytotoxicity against A549 cells. The CellTiter-Glo assay from Promega was used. It detects the cellular ATP content, which is directly proportional to the number of viable cells. The A549 cells were obtained from DSMZ (German Collection of Microorganisms and Cell Cultures, Braunschweig, Germany) and cultured in Dulbecco’s modified Eagle medium (DMEM) with FCS (10% v/v), streptomycin (100 µg/mL), and penicillin G (100 U/mL)23. […]

[1] = Cytotoxicity against A549 cells (CellTiter-Glo); format: cell-based; details: human, A549 cells; for GI50: read-out: A549 cytotoxicity GI50 (50% growth inhibition)
Description: as §4

786-O cell line = experiment: Mitochondrial toxicity (MitoTracker Red uptake, high content imaging); format: cell-based; details: for IC50: read-out: mitotox. IC50
Text: Mitochondrial toxicity caused by the synthesized compounds. Uptake of Mito-
Tracker Red (chloromethyl-X-rosamine) to the 786-O cell line was detected with high content
imaging. […]

LmPTR1 = biological target: T4, LmPTR1 (Leishmania major, UniProt Q01782); experiment: LmPTR1 indirect (cytochrome c-coupled) enzyme assay; format: biochemical; details: for IC50: indirect assay, triplicate, SD within ± 10% of the value
T4 sequence (Q01782 1-288): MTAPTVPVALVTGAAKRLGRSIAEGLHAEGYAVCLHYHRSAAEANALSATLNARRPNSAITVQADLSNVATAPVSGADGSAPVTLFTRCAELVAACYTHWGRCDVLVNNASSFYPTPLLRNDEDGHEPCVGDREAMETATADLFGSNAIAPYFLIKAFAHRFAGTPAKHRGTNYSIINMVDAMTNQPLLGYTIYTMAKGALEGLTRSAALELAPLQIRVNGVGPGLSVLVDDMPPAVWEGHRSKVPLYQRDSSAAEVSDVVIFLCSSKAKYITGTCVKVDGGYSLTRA
Description: as §3

Structure (SMILES) | CYP 2C9 IC50 (CYP2C9) | CYP 1A2 IC50 (CYP1A2) | IC50 (TbPTR1) [µM] | A549 cytotoxicity LC50 (50% lethal concentration) (A549 cells) | A549 cytotoxicity TGI (total growth inhibition) (A549 cells) | GI50 [1] [µM] | IC50 (786-O cell line; Homo sapiens, 786-0) [µM] | inhibition at 50 µM (LmPTR1) [%] | IC50 (CYP2C9; read-out: CYP 2C9 IC50) [µM] | IC50 (LmPTR1) | LC50 (50% lethal concentration) [1] [µM] | IC50 (CYP1A2) [µM] | activity at 10 µM (CYP2C9; human, at 10 µM compound concentration, read-out: CYP 2C9 % residual activity) [%] | activity at 10 µM (CYP1A2; human, at 10 µM compound concentration, read-out: CYP 1A2 % residual activity) [%] | inhibition at 50 µM (TbPTR1; at 50 μM) [%] | activity at 10 µM (A549 cells; Homo sapiens, A549, at 10 µM compound concentration, printed in GI50 column, read-out: A549 % residual activity) [%] | activity at 10 µM (786-O cell line; Homo sapiens, 786-0, at 10 µM compound concentration, read-out: mitotox. % residual activity) [%] | A549 cytotoxicity GI50 (50% growth inhibition) (A549 cells) | mitotox. IC50 (786-O cell line) | IC50 (CYP2C9) [µM]
Nc1nc2ccc(C(=O)NCCc3ccc(Cl)c(Cl)c3)cc2s1 [Compound 1a, 2-amino-N-(3,4-dichlorophenethyl)benzo[d]thiazole-6-carboxamide] | max | max | 7.6 | max | 54.4 µM | 27 | 27.9 | 21 ± 2 | – | – | – | – | – | – | – | – | – | – | – | –
Nc1nc2ccc(C(=O)N(CCc3ccc(Cl)c(Cl)c3)C3CC3)cc2s1 [Compound 1b, 2-amino-N-cyclopropyl-N-(3,4-dichlorophenethyl)benzo[d]thiazole-6-carboxamide] | – | max | 17.1 | max | 54.6 µM | 13.8 | 0.6 | 72 ± 4 | 5 | 39 µM and 38.9 µM | – | – | – | – | – | – | – | – | – | –
Nc1nc2ccc(C(=O)N(Cc3ccc(Cl)c(Cl)c3)C3CC3)cc2s1 [Compound 1c, 2-amino-N-cyclopropyl-N-(3,4-dichlorobenzyl)benzo[d]thiazole-6-carboxamide] | – | max | 71.6 | – | 61.3 µM | 24.6 | 3.8 | 26 ± 5 | 48.3 | – | 100 | – | – | – | – | – | – | – | – | –
Nc1nc2ccc(CN(Cc3ccc(Cl)c(Cl)c3)C3CC3)cc2s1 [Compound 1d, 6-((cyclopropyl(3,4-dichlorobenzyl)amino)methyl)benzo[_d_]thiazol-2-amine] | – | – | 3.3 | – | 34.4 µM | 12.6 | 1.5 | 38 ± 4 | 8.8 | – | 63.1 | 67.1 | – | – | – | – | – | – | – | –
Nc1nc2ccc(C(=O)N(CCc3ccc(Cl)c(Cl)c3)c3ccccc3)cc2s1 [Compound 1e, 2-amino-N-(3,4-dichlorophenethyl)-N-phenylbenzo[d]thiazole-6-carboxamide] | – | – | – | – | – | – | – | 31 ± 2 | – | – | – | – | 35.3 | 37.7 | 18 ± 1 | 103 | -33.8 | – | – | –
Nc1nc2ccc(C(=O)NCCc3ccccc3)cc2s1 [Compound 2a, 2-amino-N-phenethylbenzo[d]thiazole-6-carboxamide] | – | – | 14.5 | max | max | – | – | 35 ± 1 | 37.7 | – | – | 100 | – | – | – | – | – | max | max | –
Nc1nc2ccc(C(=O)NCCc3cccc(Cl)c3)cc2s1 [Compound 2b, 2-amino-N-(3-chlorophenethyl)benzo[d]thiazole-6-carboxamide] | – | max | 3.9 | max | 95.9 µM | 54.5 | – | 48 ± 2 | – | 91.4 µM | – | – | – | – | – | – | – | – | max | 35.2
Nc1nc2ccc(C(=O)NCCc3ccc(Cl)cc3)cc2s1 [Compound 2c, 2-amino-N-(4-chlorophenethyl)benzo[d]thiazole-6-carboxamide] | – | max | 4.8 | max | max | – | 40 | 32 ± 2 | 9.6 | – | – | – | – | – | – | – | – | max | – | –
Nc1nc2ccc(C(=O)NCCc3cccc(Br)c3)cc2s1 [Compound 2d, 2-amino-N-(3-bromophenethyl)benzo[d]thiazole-6-carboxamide] | – | max | 2.4 | max | 85.5 µM | 60.4 | – | 57 ± 2 | 74.5 | – | – | – | – | – | – | – | – | – | max | –
Nc1nc2ccc(C(=O)NCCc3ccc(Br)cc3)cc2s1 [Compound 2e, 2-amino-N-(4-bromophenethyl)benzo[d]thiazole-6-carboxamide] | – | max | 2.9 | max | max | – | 0.2 | 33 ± 1 | 3.6 | 78.8 µM | – | – | – | – | – | – | – | max | mitotoxic | –
Nc1nc2ccccc2n1Cc1ccc(Cl)c(Cl)c1 [I, 1-(3,4-dichlorobenzyl)-1H-benzimidazol-2-amine, reference compound] | – | – | 0.39 | – | – | – | 38.6 | 75 ± 1 | 4.2 | – | – | 29.9 | – | – | – | – | – | – | – | –
